From US11648254B2 (Kumquat Biosciences Inc., priority 2021, dated 2023)
Read-outs that look alike come from different tables or passages of the source.

What was measured:
SOS1 = SOS1 (Homo sapiens (Human), UniProt Q07889); experiment: Ras-SOS interaction assay (HTRF); assay type: biochemical
[1] = test system: MIA PaCa-2 cells (K-Ras G12C); experiment: Ras-SOS cellular growth inhibition assay (CellTiter-Glo, 3D); assay type: cell-based
Method in brief: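 MIA PaCa-2 cells grown in ultra-low-attachment plates (3D) in DMEM/Ham's F12 with 10% FCS and 2.5% horse serum, treated the day after seeding with a 9-point 3-fold compound series for about 5 days. Viability by CellTiter-Glo luminescence; IC50 from four-parameter fit.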

[2] = test system: NCI-H1975 cells (EGFR T790M L858R); experiment: EGFR-SOS cellular inhibition assay (CellTiter-Glo, 3D); assay type: cell-based
[3] = K-RasG13D utilized, read-out: IC50 inhibition of SOS
[4] = K-RasG13D, read-out: IC50 value against SOS1
[5] = Homo sapiens, MIA PaCa-2, 120 h, MIA PaCa-2, 3D proliferation, about 5 days, read-out: Bio-Cell-Prolif-3D (MiaPaca2 IC50)
[6] = Homo sapiens, MIA PaCa-2, MIA PaCa-2, read-out: IC50 in inhibiting MIA PaCa-2 cell growth
[7] = Homo sapiens, 120 h, NCI-H1975, 3D proliferation, about 5 days, read-out: Bio-Cell-Prolif-3D (H1975 IC50)
[8] = Homo sapiens, NCI-H1975, EGFR T790M L858R, read-out: IC50 in inhibiting growth of NCI-H1975 cell line

Sequence of SOS1 (Q07889 564-1049): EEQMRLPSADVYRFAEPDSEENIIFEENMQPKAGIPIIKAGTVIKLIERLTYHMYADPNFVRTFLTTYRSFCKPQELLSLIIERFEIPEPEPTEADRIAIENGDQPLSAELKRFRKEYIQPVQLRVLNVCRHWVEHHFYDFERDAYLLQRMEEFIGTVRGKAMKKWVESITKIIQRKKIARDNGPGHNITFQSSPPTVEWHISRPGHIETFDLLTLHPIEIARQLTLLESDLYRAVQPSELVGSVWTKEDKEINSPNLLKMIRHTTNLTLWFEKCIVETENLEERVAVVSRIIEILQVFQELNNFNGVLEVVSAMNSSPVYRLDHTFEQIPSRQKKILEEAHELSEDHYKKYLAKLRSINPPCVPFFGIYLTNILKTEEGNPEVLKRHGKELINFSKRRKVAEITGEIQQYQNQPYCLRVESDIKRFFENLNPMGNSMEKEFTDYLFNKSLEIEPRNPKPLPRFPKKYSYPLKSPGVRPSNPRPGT

Row | IC50 (SOS1; [3]) [nM] | IC50 (SOS1; [4]) [nM] | IC50 [1, 5] [nM] | IC50 [1, 6] [nM] | IC50 [2, 7] [nM] | IC50 [2, 8] [nM] | IC50 ([1]; MIA PaCa-2, 3D proliferation, about 5 days, read-out: Bio-Cell-Prolif-3D (MiaPaca2 IC50)) [nM] | IC50 ([1]; MIA PaCa-2, read-out: IC50 in inhibiting MIA PaCa-2 cell growth) [nM] | IC50 ([2]; NCI-H1975, 3D proliferation, about 5 days, read-out: Bio-Cell-Prolif-3D (H1975 IC50)) [nM] | IC50 ([2]; NCI-H1975, EGFR T790M L858R, read-out: IC50 in inhibiting growth of NCI-H1975 cell line) [nM] | Structure (SMILES)
1 | < 100 | < 50 | – | – | – | – | ≤ 1000 | < 500 | ≤ 1000 | < 500 | COc1nc2nc(C)nc(N[C@H](C)c3cccc(C(F)F)c3F)c2cc1C1CCS(=N)(=O)CC1 (stereo partly drawn) [Compound 154, (R)-4-(4-((1-(3-(difluoromethyl)-2-fluorophenyl)ethyl)amino)-7-methoxy-2-methylpyrido[2,3-d]pyrimidin-6-yl)-1-iminohexahydro-1λ6-thiopyran 1-oxide]
2 | < 100 | < 50 | ≤ 1000 | – | ≤ 1000 | < 500 | – | – | – | – | COc1nc2nc(C)nc(N[C@H](C)c3cccc(C(F)F)c3F)c2cc1C1(C#N)CCOCC1 [Compound 320, (R)-4-(4-((1-(3-(difluoromethyl)-2-fluorophenyl)ethyl)amino)-7-methoxy-2-methylpyrido[2,3-d]pyrimidin-6-yl)tetrahydro-2H-pyran-4-carbonitrile]
3 | < 100 | < 50 | ≤ 1000 | < 500 | ≤ 1000 | < 500 | – | – | – | – | CC(C)N1CCC(c2cc3c(N[C@H](C)c4cccc(C(F)(F)F)c4F)ncnc3nc2Cl)CC1 [Compound 384, (R)-7-chloro-N-(1-(2-fluoro-3-(trifluoromethyl)phenyl)ethyl)-6-(1-isopropylpiperidin-4-yl)pyrido[2,3-d] pyrimidin-4-amine]
4 | < 100 | < 50 | ≤ 1000 | < 500 | ≤ 1000 | < 500 | – | – | – | – | CC(C)N1CCC(c2cc3c(N[C@H](C)c4cccc(C(F)(F)C5CCN(C(C)C)CC5)c4)ncnc3nc2Cl)CC1 [Compound 268, (R)-7-chloro-N-(1-(3-(difluoro(1-isopropylpiperidin-4-yl)methyl)phenyl)ethyl)-6-(1-isopropylpiperidin-4-yl)pyrido[2,3-d] pyrimidin-4-amine]
5 | < 100 | < 50 | ≤ 1000 | – | ≤ 1000 | – | – | – | – | – | Cc1nc(N[C@H](C)c2cccc(C(F)F)c2F)c2cc(C3CCS(=O)(=O)CC3)c(OC3COC3)nc2n1 [Compound 229, (R)-4-(4-((1-(3-(difluoromethyl)-2-fluorophenyl)ethyl)amino)-2-methyl-7-(oxetan-3-yloxy)pyrido[2,3-d]pyrimidin-6-yl)tetrahydro-2H-thiopyran 1,1-dioxide]
6 | < 100 | < 50 | ≤ 1000 | < 500 | ≤ 1000 | < 500 | – | – | – | – | CC(C)N1CCN(c2cc3c(N[C@H](C)c4cccc(C(F)F)c4F)ncnc3nc2OC2COC2)CC1 [Compound 413, (R)-N-(1-(3-(difluoromethyl)-2-fluorophenyl)ethyl)-6-(4-isopropylpiperazin-1-yl)-7-(oxetan-3-yloxy)pyrido[2,3-d] pyrimidin-4-amine]
7 | < 100 | < 50 | ≤ 1000 | < 500 | ≤ 1000 | < 500 | – | – | – | – | Cc1nc(N[C@H](C)c2cccc(C(F)F)c2F)c2cc(C3(C#N)CC3)c(OC3CCN(C)CC3)nc2n1 [Compound 232, (R)-1-(4-((1-(3-(difluoromethyl)-2-fluorophenyl)ethyl)amino)-2-methyl-7-((1-methylpiperidin-4-yl)oxy)pyrido [2,3-d]pyrimidin-6-yl)cyclopropane-1-carbonitrile]

Continued, compound first:

Row | Structure (SMILES) | IC50 (SOS1; [3]) [nM] | IC50 (SOS1; [4]) [nM] | IC50 [1, 5] [nM] | IC50 [1, 6] [nM] | IC50 [2, 7] [nM] | IC50 [2, 8] [nM] | IC50 ([1]; MIA PaCa-2, 3D proliferation, about 5 days, read-out: Bio-Cell-Prolif-3D (MiaPaca2 IC50)) [nM] | IC50 ([1]; MIA PaCa-2, read-out: IC50 in inhibiting MIA PaCa-2 cell growth) [nM] | IC50 ([2]; NCI-H1975, 3D proliferation, about 5 days, read-out: Bio-Cell-Prolif-3D (H1975 IC50)) [nM] | IC50 ([2]; NCI-H1975, EGFR T790M L858R, read-out: IC50 in inhibiting growth of NCI-H1975 cell line) [nM]
8 | COc1nc2ncnc(N[C@H](C)c3cccc(C(F)(F)CO)c3F)c2cc1N1CCN(C(C)C)CC1 [Compound 204, (R)-2,2-difluoro-2-(2-fluoro-3-(1-((6-(4-isopropylpiperazin-1-yl)-7-methoxypyrido[2,3-d]pyrimidin-4-yl)amino)ethyl)phenyl)ethan-1-ol] | < 100 | < 50 | ≤ 1000 | < 500 | ≤ 1000 | < 500 | – | – | – | –
9 | COc1nc2ncnc(N[C@H](C)c3cccc(C(F)(F)F)c3F)c2cc1N1CCN(C2CCOCC2)CC1 [Compound 166, (R)-N-(1-(2-fluoro-3-(trifluoromethyl)phenyl)ethyl)-7-methoxy-6-(4-(tetrahydro-2H-pyran-4-yl)piperazin-1-yl)pyrido[2,3-d]pyrimidin-4-amine] | < 100 | < 50 | ≤ 1000 | < 500 | ≤ 1000 | < 500 | – | – | – | –
10 | C[C@@H](Nc1ncnc2nc(Cl)c(C3CCS(=O)(=O)CC3)cc12)c1cccc(C(F)(F)F)c1F [Compound 331, (R)-4-(7-chloro-4-((1-(2-fluoro-3-(trifluoromethyl)phenyl)ethyl)amino)pyrido[2,3-d]pyrimidin-6-yl)tetrahydro-2H-thiopyran 1,1-dioxide] | < 100 | < 50 | ≤ 1000 | < 500 | ≤ 1000 | < 500 | – | – | – | –
11 | CC(C)N1CCC(C(F)(F)c2cccc([C@@H](C)Nc3ncnc4nc(Cl)c(N5CCN(C(C)C)CC5)cc34)c2F)CC1 [Compound 224, (R)-7-chloro-N-(1-(3-(difluoro(1-isopropylpiperidin-4-yl)methyl)-2-fluorophenyl)ethyl)-6-(4-isopropylpiperazin-1-yl)pyrido[2,3-d]pyrimidin-4-amine] | < 100 | < 50 | ≤ 1000 | < 500 | ≤ 1000 | < 500 | – | – | – | –
12 | COc1nc2ncnc(N[C@H](C)c3cccc(C(F)F)c3F)c2cc1C1(C#N)CCS(=O)(=O)CC1 [Compound 342, (R)-4-(4-((1-(3-(difluoromethyl)-2-fluorophenyl)ethyl)amino)-7-methoxypyrido[2,3-d]pyrimidin-6-yl)tetrahydro-2H-thiopyran-4-carbonitrile 1,1-dioxide] | < 100 | < 50 | ≤ 1000 | – | ≤ 1000 | < 500 | – | – | – | –
13 | Cc1nc(N[C@H](C)c2cccc(C(F)F)c2F)c2cc(S(=O)(=O)C3CCN(C)CC3)c(C)nc2n1 [Compound 138, (R)-N-(1-(3-(difluoromethyl)-2-fluorophenyl)ethyl)-2,7-dimethyl-6-((1-methylpiperidin-4-yl)sulfonyl)pyrido[2,3-d]pyrimidin-4-amine] | – | < 50 | ≤ 1000 | < 500 | ≤ 1000 | < 500 | – | – | – | –
14 | Cc1nc(N[C@H](C)c2cccc(C(F)(F)F)c2F)c2cc(C3CCS(=O)(=O)CC3)c(Cl)nc2n1 [Compound 262, (R)-4-(7-chloro-4-((1-(2-fluoro-3-(trifluoromethyl)phenyl)ethyl)amino)-2-methylpyrido[2,3-d]pyrimidin-6-yl)tetrahydro-2H-thiopyran 1,1-dioxide] | < 100 | < 50 | ≤ 1000 | – | ≤ 1000 | < 500 | – | – | – | –
15 | COc1nc2nc(C)nc(N[C@H](C)c3cccc(C(F)(F)CO)c3F)c2cc1N1CCN(C(C)C)CC1 [Compound 181, (R)-2,2-difluoro-2-(2-fluoro-3-(1-((6-(4-isopropylpiperazin-1-yl)-7-methoxy-2-methylpyrido[2,3-d]pyrimidin-4-yl)amino)ethyl)phenyl)ethan-1-ol] | < 100 | < 50 | ≤ 1000 | < 500 | ≤ 1000 | < 500 | – | – | – | –
16 | Cc1nc(N[C@H](C)c2cccc(C(F)F)c2F)c2cc(C3CCS(=O)(=O)CC3)c(OC3CN(C)C3)nc2n1 [Compound 191, (R)-4-(4-((1-(3-(difluoromethyl)-2-fluorophenyl)ethyl)amino)-2-methyl-7-((1-methylazetidin-3-yl)oxy)pyrido[2,3-d]pyrimidin-6-yl)tetrahydro-2H-thiopyran 1,1-dioxide] | < 100 | < 50 | 1000 to 10000 | – | 1000 to 10000 | – | – | – | – | –
17 | Cc1nc(N[C@H](C)c2cccc(C(F)F)c2F)c2cc(C3CCN(C(C)C)CC3)c(OC3COC3)nc2n1 [Compound 335, (R)-N-(1-(3-(difluoromethyl)-2-fluorophenyl)ethyl)-6-(1-isopropylpiperidin-4-yl)-2-methyl-7-(oxetan-3-yloxy)pyrido [2,3-d]pyrimidin-4-amine] | < 100 | – | ≤ 1000 | – | ≤ 1000 | – | – | – | – | –
18 | Cc1nc(N[C@H](C)c2cccc(C(F)(F)F)c2C)c2cc(C3CCS(=O)(=O)CC3)c(OC3COC3)nc2n1 [Compound 249, (R)-4-(2-methyl-4-((1-(2-methyl-3-(trifluoromethyl)phenyl)ethyl)amino)-7-(oxetan-3-yloxy)pyrido[2,3-d]pyrimidin-6-yl)tetrahydro-2H-thiopyran 1,1-dioxide] | < 100 | < 50 | 1000 to 10000 | – | ≤ 1000 | < 500 | – | – | – | –
19 | Cc1nc(N[C@H](C)c2cccc(C(F)(F)F)c2F)c2cc(C3CCS(=O)(=O)CC3)c(OC3COC3)nc2n1 [Compound 247, (R)-4-(4-((1-(2-fluoro-3-(trifluoromethyl)phenyl)ethyl)amino)-2-methyl-7-(oxetan-3-yloxy)pyrido[2,3-d]pyrimidin-6-yl)tetrahydro-2H-thiopyran 1,1-dioxide] | < 100 | < 50 | ≤ 1000 | < 500 | ≤ 1000 | < 500 | – | – | – | –
